In experiment [1] the test system is Ramos B cells. In words: CDC assay, Ramos B cells with human serum complement, propidium iodide. Particulars: for CDC activity with human complement, single reagent: Ramos B cells, human serum. Type of experiment: cell-based. How it is done: (§1) The cells were incubated 60 minutes at 37° C. […] Samples were incubated 15 minutes at room temperature in the dark prior to analysis by flow cytometry using a FACsCalibur and CellQuest software (Becton Dickinson).
as §1

The test system of experiment [2] is Ramos B cells. As to the kind of experiment: CDC assay, Ramos B cells with rabbit complement. Format: cell-based, human. Particulars: 10 μg/ml reagent, rabbit complement 10, 5 or 2.5%, FIG. 3C. As for the experimental part:
Human and rabbit complement were then compared for their CDC activity in the presence of the TRU-016. The CDC activity of TRU-016 molecular forms incubated with Ramos B cells and human or rabbit complement was measured (FIG. 3C). Ramos B cells were added to wells in serum free media. […] Cells plus complement source were incubated 90 minutes at 37° C. Cells were washed once with cold PBS and propidium iodide (Molecular Probes #P3566) added to a final concentration of 0.5 μg/mL in cold PBS. Cells with PI were incubated in the dark at RT for 15 minutes and analyzed by flow cytometry.

For experiment [3], the system named is BJAB B cells. As to the kind of experiment: ADCC 51Cr release assay, BJAB targets, human PBMC effectors. Particulars: 10 ng/mL to 20 μg/mL, effector:target 25:1, 6 hours, FIG. 5C. Type of experiment: cell-based. How it is done: To determine the ADCC activity of SEC fractions, BJAB, Ramos, and Daudi lymphoblastoid B cells (10^7) cells were labeled with 500 μCi/mL ^51Cr sodium chromate for 2 hours at 37° C. in IMDM/10% FBS. PBMCs were isolated from heparinized, human whole blood by fractionation over Lymphocyte Separation Media (LSM, ICN Biomedical) gradients. Reagent samples were added to RPMI media with 10% FBS and five serial dilutions for each reagent were prepared. For combinations, the reagents were premixed and diluted prior to addition to the wells. The ^51Cr labeled BJAB were added at (2×10^4 cells/well). The PBMCs were then added at (5×10^5 cells/well) for a final ratio of 25:1 effectors (PBMC):targets (BJAB). […] CPM released was measured on a Packard TopCounNXT from 50 μl dried culture supernatant. Percent specific killing was calculated by subtracting (cpm [mean of quadruplicate samples] of sample—cpm spontaneous release)/(cpm maximal release-cpm spontaneous release)×100 (FIG. 5C).
BJAB, Ramos, and Daudi lymphoblastoid B cells (10E7) cells were labeled with 500 μCi/mL ^51Cr sodium chromate for 2 hours at 37° C. in IMDM/10% FBS. […] Cells were counted by trypan blue exclusion using a hemacytometer prior to use in subsequent assays. […]
Effectors and targets were added to media alone to measure background killing. […] CPM released was measured on a Packard TopCounNXT. […]

Experiment [4] has as its system Ramos cells. In words: ADCC assay, labeled Ramos targets, human PBMC effectors. Type of experiment: cell-based. As to conditions: effector to target ratio 25:1, FIG. 18D.
Description: To determine the ADCC activity of SEC fractions, BJAB, Ramos, and Daudi lymphoblastoid B cells (10^7) cells were labeled with 500 μCi/mL ^51Cr sodium chromate for 2 hours at 37° C. in IMDM/10% FBS. PBMCs were isolated from heparinized, human whole blood by fractionation over Lymphocyte Separation Media (LSM, ICN Biomedical) gradients. Reagent samples were added to RPMI media with 10% FBS and five serial dilutions for each reagent were prepared. For combinations, the reagents were premixed and diluted prior to addition to the wells. The ^51Cr labeled BJAB were added at (2×10^4 cells/well). The PBMCs were then added at (5×10^5 cells/well) for a final ratio of 25:1 effectors (PBMC):targets (BJAB). Reactions were set up in quadruplicate wells of a 96 well plate. TRU-016 SEC fractions were added to wells at a final concentration ranging from 10 ng/mL to 20 μg/mL as indicated on the graphs. Each data series plots a different SEC fraction at the titration ranges described. Reactions were allowed to proceed for 6 hours at 37° C. in 5% CO2 prior to harvesting and counting. CPM released was measured on a Packard TopCounNXT from 50 μl dried culture supernatant. Percent specific killing was calculated by subtracting (cpm [mean of quadruplicate samples] of sample—cpm spontaneous release)/(cpm maximal release-cpm spontaneous release)×100 (FIG. 5C).
The test system of experiment [5] is Daudi cells. In words: Annexin V/PI apoptosis analysis, Daudi. Format: cell-based, human. How it is done: Further experiments examining the effect of TRU-016 on B cell line apoptosis were performed using the more highly purified dimer form of TRU-016 (FIG. 19B). Samples were analyzed at both 24 and 48 hours after initiation of incubation reactions. Annexin/PI analysis was performed on several cell types using 20 μg/mL TRU-016 protein. Because apoptosis was reduced using the dimer form of TRU-016, 20 μg/mL goat anti-human IgG was added to reactions in order to cross link reagents on the cell surface. Cells were then stained with Annexin V-FITC and propidium iodide.

The target of experiment [6] is T1, C1q (Homo sapiens, UniProt P02745+P02746+P02747).
T1 construct: normal human serum (NHS, #A113, Quidel Corp., San Diego, Calif.); tissue Quidel Corp. A113; host or cells: normal human serum (purchased), added to reagent-coated Ramos B cells
T1 sequence (P02745 23-245): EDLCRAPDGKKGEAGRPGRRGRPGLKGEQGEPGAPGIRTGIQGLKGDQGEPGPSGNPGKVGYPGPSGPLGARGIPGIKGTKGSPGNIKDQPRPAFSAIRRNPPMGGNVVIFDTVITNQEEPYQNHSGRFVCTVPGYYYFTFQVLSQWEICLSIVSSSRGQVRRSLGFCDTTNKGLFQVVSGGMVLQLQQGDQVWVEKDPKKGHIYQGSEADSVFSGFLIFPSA
T1 sequence (P02746 28-253): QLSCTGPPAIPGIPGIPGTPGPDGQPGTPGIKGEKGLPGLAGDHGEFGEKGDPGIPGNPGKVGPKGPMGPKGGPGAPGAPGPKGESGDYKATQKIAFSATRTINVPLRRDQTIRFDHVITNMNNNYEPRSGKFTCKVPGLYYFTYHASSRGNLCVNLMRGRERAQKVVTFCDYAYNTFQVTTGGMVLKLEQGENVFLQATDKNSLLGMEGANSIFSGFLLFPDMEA
T1 sequence (P02747 29-245): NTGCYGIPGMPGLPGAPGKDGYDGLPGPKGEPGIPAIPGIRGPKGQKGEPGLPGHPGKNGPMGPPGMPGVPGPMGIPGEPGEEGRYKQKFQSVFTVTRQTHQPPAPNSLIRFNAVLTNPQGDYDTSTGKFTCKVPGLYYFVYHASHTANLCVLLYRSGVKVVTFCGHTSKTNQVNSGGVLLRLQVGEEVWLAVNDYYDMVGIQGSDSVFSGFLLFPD
In words: FITC C1q binding to reagent-coated Ramos B cells in normal human serum. As to conditions: normal human serum 1.25-10%, FIG. 3A.
Description: C1q binding studies were performed as previously described (Cragg et al., Blood 2004, 103:2738-2743). Briefly, Ramos B-cells in Iscoves media (#12440-053, Gibco/Invitrogen, Grand island, NY) with no serum were plated in 96-well V bottom plates at 5×10^5/well in 100 μl. Cells were incubated with reagents for 15 minutes at 37° C., and normal human serum (NHS, #A113, Quidel Corp., San Diego, Calif.) diluted in Iscoves was then added at a volume of 50 μl to each well for a final concentration of 10, 5, 2.5, or 1.25% human serum. Fifty μl of media was added to the control well. For cobra venom factor (CVF) experiments, CVF was added to human serum complement samples at 20 Units CVF/mL of serum for 90 minutes at 37° C. prior to addition of serum to complement assays, and the dilution of serum by CVF accounted for when making sample dilutions.
The cells plus complement source were incubated for an additional 5 minutes at 37° C., and washed 2 times with cold PBS (#14040-133, Gibco/Invitrogen, Grand Island, N.Y.) via centrifugation and resuspended in 100 μl of PBS. Fifty μl from each well was transferred to a second plate for second step control staining. […] Samples were washed, resuspended in cold PBS, and read immediately on a FACsCalibur flow cytometer and analyzed with Cell Quest software (Becton Dickinson, San Jose, Calif.).

The target in experiment [7] is T2, CD37 (Homo sapiens, UniProt P11049).
T2 sequence (P11049 1-281): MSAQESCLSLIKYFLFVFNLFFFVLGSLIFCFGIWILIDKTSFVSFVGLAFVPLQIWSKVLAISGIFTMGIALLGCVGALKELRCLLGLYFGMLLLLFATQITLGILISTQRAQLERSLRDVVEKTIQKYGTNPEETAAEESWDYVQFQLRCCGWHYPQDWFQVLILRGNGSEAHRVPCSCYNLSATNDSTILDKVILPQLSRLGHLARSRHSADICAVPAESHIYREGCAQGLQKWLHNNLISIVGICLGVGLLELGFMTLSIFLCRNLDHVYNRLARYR
As to the kind of experiment: binding of TRU-016 SEC fractions to Ramos cells, flow cytometry. Particulars: FITC goat anti-human IgG, FIG. 5A. On the set-up: Ramos cells expressing the CD20 and CD37 target antigens; endogenous in cells; host or cells: Ramos B-cell lymphoma line. How it is done:
To determine the binding properties of SEC fractions, cells were suspended in staining media at a concentration of approximately 4×10^6 cells/mL and then plated at 50 μl/well (2×10^5 cells/well) in staining media. Serial dilutions of SEC fractions were then added to sequential wells, incubated for 45 minutes, washed, and binding activity was detected using FITC goat anti-human IgG. Samples were fixed in 200 μl 1% paraformaldehyde in PBS. Cells were analyzed by flow cytometry on a FACsCalibur instrument using Cell Quest software (BD Biosciences, San Jose, Calif.) (FIG. 5A).
(In general: In flow cytometry, cells or beads pass a laser one at a time.)

This note sets out measurements from US10143748B2, “B-cell reduction using CD37-specific and CD20-specific binding molecules” (Emergent Product Development Seattle, LLC, priority 2005, dated 2018).

As to “TRU-016 dimer peak: dimer form of TRU-016 isolated by GPC and HPLC fractionation from higher molecular weight multimers”, the “CDC activity with human complement, single reagent” value is “poor mediator of CDC” in experiment [1], “very low CDC activity” in experiment [1] (listed as dimer form of the TRU-016) and “very little or no CDC activity” in experiment [1] (listed as dimer peak). Also, the “CDC activity with rabbit complement” value in experiment [2] was “good CDC”. For the same substance, the “ADCC, % specific killing” value in experiment [3] is reported as “potent, dose-dependent ADCC”. In addition, in experiment [4], the “ADCC against Ramos cells” value was “significant levels of ADCC”. The “apoptosis of Daudi cells with crosslinking agent” value in experiment [5] (20 μg/mL plus 20 μg/mL goat anti-human IgG) is reported as “significant increase in the level of CD37 targeted apoptosis”. Further, the “apoptosis of Daudi cells” value in experiment [5] (20 μg/mL, 24-48 hours, FIG. 19B) is “induces apoptosis of Daudi cells”.

For the substance “HMW multimer fraction: higher molecular weight multimers of TRU-016 separated by SEC”, the “FITC C1q binding” value in experiment [6] was “more binding than the other forms”. Besides, in experiment [1], the “CDC activity with human complement, single reagent” value was “significant levels of CDC activity”. Further, the “CDC cell killing in the presence of CVF” value in experiment [1] (human serum complement with cobra venom factor, FIG. 3B) is reported as “significantly reduced in the presence of CVF”. In addition, the “ADCC, % specific killing” value in experiment [3] was “potent, dose-dependent ADCC”. The “binding to Ramos cells (titration curves)” value in experiment [7] is reported as “better binding”.
